Series [1] has as its system THP1-Dual KO-STING. As to the kind of experiment: Cytotoxicity against human THP1-Dual KO-STING cells assessed as effect on cell viability at 1 uM followed by addition of conditioned medium containing 36 hrs compound pretreated human MDA-MB-231 cells measured after 24 hrs by celltiter-glo assay. The conditions noted are these: time 60.0 hrs. It counts as functional, cell-based.

Series [2] has as its system CT26. Briefly: Antitumor activity against mouse CT26 cells allografted in female BALB/c mouse assessed as increase in CD8+T cells in tumor tissue at 200 mg/kg QD, ip measured every 2 days for 12 days by immunofluorescence analysis. The class given is functional, organism-based. The conditions noted are these: time 12.0 day.
Series [3] has as its system CT26. Briefly: Antitumor activity against mouse CT26 cells allografted in female BALB/c mouse assessed as decrease in M2-type macrophages in tumor tissue at 200 mg/kg QD, ip measured every 2 days for 12 days by immunofluorescence analysis. The class given is functional, organism-based. The settings on record: time 12.0 day.
For a further series, the species on record is Homo sapiens. As to the kind of experiment: Inhibition of STE (unknown origin) at 1 uM by KINOMEscan assay.
For another series, the system named is THP1-Dual. As to the kind of experiment: Activation of STING-mediated immune response in human THP1-Dual cells assessed as increase in cGAMP-induced ISRE activation preincubated in conditioned medium containing 36 hrs compound treated with human MDA-MB-231 cells measured after 24 hrs by quanti-luc luciferase assay. It counts as cell-based. The settings on record: filed as activator, time 60.0 hrs.

The nature of series [4]: Half life in Sprague-Dawley rat at 10 mg/kg, iv measured upto 24 hrs by LC-MS/MS analysis. The class given is ADME, organism-based. The settings on record: in vivo.
Series [5] can be described thus: Cmax in Sprague-Dawley rat at 10 mg/kg, iv measured upto 24 hrs by LC-MS/MS analysis. The class given is ADME, organism-based. The settings on record: in vivo.
Series [6] concerns the target T1, Ectonucleotide pyrophosphatase/phosphodiesterase family member 1 (Homo sapiens, UniProt P22413).
T1 sequence (P22413 whole entry): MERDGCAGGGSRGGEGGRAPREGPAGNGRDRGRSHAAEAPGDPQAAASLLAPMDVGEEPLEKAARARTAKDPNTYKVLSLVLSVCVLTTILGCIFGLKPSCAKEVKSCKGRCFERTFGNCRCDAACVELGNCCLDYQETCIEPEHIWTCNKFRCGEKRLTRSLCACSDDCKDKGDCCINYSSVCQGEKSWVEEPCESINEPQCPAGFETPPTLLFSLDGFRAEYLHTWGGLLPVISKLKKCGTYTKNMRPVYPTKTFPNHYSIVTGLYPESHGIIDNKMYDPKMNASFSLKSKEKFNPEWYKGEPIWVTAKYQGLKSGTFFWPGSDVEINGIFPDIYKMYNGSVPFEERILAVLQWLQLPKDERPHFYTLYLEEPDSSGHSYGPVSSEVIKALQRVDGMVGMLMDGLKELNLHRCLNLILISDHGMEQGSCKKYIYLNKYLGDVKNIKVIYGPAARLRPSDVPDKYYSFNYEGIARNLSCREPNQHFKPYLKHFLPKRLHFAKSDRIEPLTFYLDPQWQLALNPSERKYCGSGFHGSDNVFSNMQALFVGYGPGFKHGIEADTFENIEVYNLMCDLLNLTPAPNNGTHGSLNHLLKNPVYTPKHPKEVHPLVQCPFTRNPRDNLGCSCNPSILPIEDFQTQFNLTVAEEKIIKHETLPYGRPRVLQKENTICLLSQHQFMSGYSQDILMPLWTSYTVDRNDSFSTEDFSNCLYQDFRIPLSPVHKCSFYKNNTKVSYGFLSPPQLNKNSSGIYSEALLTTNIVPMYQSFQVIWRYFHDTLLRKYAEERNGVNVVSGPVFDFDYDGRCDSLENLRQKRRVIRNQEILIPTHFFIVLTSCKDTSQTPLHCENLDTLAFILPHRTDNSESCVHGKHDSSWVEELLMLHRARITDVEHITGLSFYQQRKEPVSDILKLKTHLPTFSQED
Briefly: Inhibition of ENPP1 in human MDA-MB-231 cells using p-NPh-5TMP as substrate at pH 8.5 measured after 60 mins. It counts as cell-based.

The subject of series [7] is THP-1. As to the kind of experiment: Activation of STING signalling pathway in human THP-1 cells assessed as increase in IRF3 phosphorylation at 300 nM preincubated with compound for 2 hrs followed by cGAMP addition and measured after 3 hrs by Western blot analysis. It counts as cell-based. The conditions noted are these: filed as activator, time 5.0 hrs.
The subject of series [8] is THP1-Dual KO-STING. Briefly: Activation of STING-mediated immune response in human THP1-Dual KO-STING cells assessed as cGAMP-induced ISRE activation at 1 uM preincubated with conditioned medium containing 36 hrs compound treated with human MDA-MB-231 cells and measured after 24 hrs by quanti-luc luciferase assay. It counts as cell-based. The settings on record: filed as activator, time 60.0 hrs.

Series [9] relates to CT26. As to the kind of experiment: Antitumor activity against mouse CT26 cells allografted in female BALB/c mouse assessed as increase in M1-type macrophages in tumor tissue at 200 mg/kg QD, ip in presence of anti-PD-L1 antibody measured every 2 days for 12 days by immunohistochemical analysis. The settings on record: time 12.0 day. It counts as functional, organism-based.

For series [10], the system named is CT26. Briefly: Antitumor activity against mouse CT26 cells allografted in female BALB/c mouse assessed as increase in M1-type macrophages in tumor tissue at 200 mg/kg QD, ip measured every 2 days for 12 days by immunohistochemical analysis. It counts as functional, organism-based. The conditions noted are these: time 12.0 day.
In series [11] the test system is CT26. As to the kind of experiment: Antitumor activity against mouse CT26 cells allografted in female BALB/c mouse assessed as decrease in M2-type macrophages in tumor tissue at 200 mg/kg QD, ip in presence of anti-PD-L1 antibody measured every 2 days for 12 days by immunofluorescence analysis. The class given is functional, organism-based. The settings on record: time 12.0 day.

Series [12] in a line: Clearance in Sprague-Dawley rat at 10 mg/kg, iv measured upto 24 hrs by LC-MS/MS analysis. It counts as ADME, organism-based. The conditions noted are these: in vivo.
Series [13] relates to CT26. As to the kind of experiment: Antitumor activity against mouse CT26 cells allografted in female BALB/c mouse assessed as increase in CD8+T cells in tumor tissue at 200 mg/kg QD, ip in presence of anti-PD-L1 antibody measured every 2 days for 12 days by immunofluorescence analysis. The settings on record: time 12.0 day. The class given is functional, organism-based.
A short description of series [14]: Apparent permeability across apical to basal side in human Caco-2 cells at 10 uM by LC-MS/MS analysis. It counts as ADME, cell-based.
Series [15] can be described thus: MRT (0 to t) in Sprague-Dawley rat at 10 mg/kg, iv measured upto 24 hrs by LC-MS/MS analysis. The class given is ADME, organism-based. The conditions noted are these: in vivo.
Series [16] relates to CT26. Briefly: Antitumor activity against mouse CT26 cells allografted in female BALB/c mouse assessed as increase in infiltration of CD8+T cells in tumor tissue at 200 mg/kg QD, ip measured every 2 days for 12 days by immunohistochemical analysis. It counts as functional, organism-based. The conditions noted are these: time 12.0 day.
The subject of series [17] is CT26. Briefly: Antitumor activity against mouse CT26 cells allografted in female BALB/c mouse assessed as increase in M1-type macrophages in tumor tissue at 200 mg/kg QD, ip measured every 2 days for 12 days by immunofluorescence analysis. It counts as functional, organism-based. The conditions noted are these: time 12.0 day.
Series [18] deals with CT26. Briefly: Antitumor activity against mouse CT26 cells allografted in female BALB/c mouse assessed as decrease in M2-type macrophages in tumor tissue at 200 mg/kg QD, ip in presence of anti-PD-L1 antibody measured every 2 days for 12 days by immunohistochemical analysis. The conditions noted are these: time 12.0 day. The class given is functional, organism-based.
Series [19] concerns the target T1, Ectonucleotide pyrophosphatase/phosphodiesterase family member 1. As to the kind of experiment: Inhibition of ENPP1 in human MDA-MB-231 cells using p-NPh-5TMP as substrate at pH 9.5 measured after 60 mins. It counts as cell-based.
The test system of series [20] is THP-1. Briefly: Activation of STING signalling pathway in human THP-1 cells assessed as increase in TBK1 phosphorylation at 300 nM preincubated with compound for 2 hrs followed by cGAMP addition and measured after 3 hrs by Western blot analysis. The settings on record: filed as activator, time 5.0 hrs. It counts as cell-based.

The source made the active and inactive calls. The calls are words filed in the database; no cut-off is given here.

Consider `COc1cccc2c(N3CCC(O)(CNS(N)(=O)=O)CC3)ncnc12`, for which the result with THP1-Dual KO-STING [1], in the series on CT26 [2], with CT26 [3], in the series on THP-1 [7], in the series on THP1-Dual KO-STING [8] and in the series on CT26 [9] was Active. Besides, the result in the series on CT26 [10], in the series on CT26 [11], in the series on CT26 [13], with CT26 [16], in the series with CT26 [17] and with CT26 [18] was Active. Further, in the series with THP-1 [20], the outcome was Active. In the series listed under Homo sapiens, the inhibition result was “inactive”. The Activity entry with THP1-Dual is “Dose-dependent-effect”. Besides, the half-life in [4] was 46.7 min. Also, the Cmax in series [5] came to 3220 ng/mL. Further, the half-inhibitory concentration (IC50) in series [6] came to 42 nM; in [19], 1.53 nM. In series [12], the clearance is 84.5 mL/min/kg. For the same compound, in series [14], the apical-to-basolateral permeability (Papp A→B) at 10 µM was determined as 0.106 ×10⁻⁶ cm/s. The MRT last at 24 h in series [15] was 39.7 min.

The values above are taken from ChEMBL document CHEMBL6114998, “Design, Synthesis, and Pharmacological Evaluation of Quinazoline and Quinoline Derivatives as Potent ENPP1 Inhibitors for Cancer Immunotherapy” (J Med Chem, 2025).
